Laboratory results reported in PubChem BioAssay (NCI).
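Each compound was tested at five concentrations against cells in 96-well plates for 48 hours. Here, GI50 denotes the concentration required for 50% inhibition of growth. TGI is the concentration that stops growth completely.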

Assays:
Assay in all cases: inhibition of tumour cell growth, NCI panel, 48 h
RPMI-8226 leukemia = tested on: RPMI-8226 leukemia
HOP-92 NSCLC = tested on: HOP-92 NSCLC
MOLT-4 leukemia = tested on: MOLT-4 leukemia
BT-549 breast = tested on: BT-549 breast
NCI-H460 lung = tested on: NCI-H460 lung
MCF7 breast = tested on: MCF7 breast
SNB-19 CNS = tested on: SNB-19 CNS
SK-MEL-5 melanoma = tested on: SK-MEL-5 melanoma
HS 578T breast = tested on: HS 578T breast
UACC-62 melanoma = tested on: UACC-62 melanoma
HL-60(TB) leukemia = tested on: HL-60(TB) leukemia

CCCC[C@@H](C)/C=C1\CN2CCC[C@H]2[C@@](C)(OCc2ccccc2)[C@@H]1O
TGI (RPMI-8226 leukemia): > 23.7 µM
TGI (HOP-92 NSCLC): > 50 µM
TGI (MOLT-4 leukemia): > 50 µM
TGI (BT-549 breast): > 50 µM
TGI (NCI-H460 lung): > 50 µM
TGI (MCF7 breast): > 50 µM
TGI (SNB-19 CNS): > 50 µM
TGI (SK-MEL-5 melanoma): > 50 µM
TGI (HS 578T breast): > 50 µM
TGI (UACC-62 melanoma): > 50 µM

COC(C/C(=C/CO[Si](C(C)C)(C(C)C)C(C)C)C(=O)N(COCC[Si](C)(C)C)c1ccccc1I)OC
TGI (RPMI-8226 leukemia): > 100 µM
TGI (HOP-92 NSCLC): > 100 µM
TGI (MOLT-4 leukemia): > 100 µM
TGI (NCI-H460 lung): > 100 µM
TGI (SNB-19 CNS): > 100 µM
TGI (SK-MEL-5 melanoma): > 100 µM
TGI (HS 578T breast): > 100 µM
TGI (UACC-62 melanoma): 50.7 µM

Cn1nc2ccc(Nc3cc(=O)[nH]c4ccc5nn(C)nc5c34)cc2n1
TGI (HOP-92 NSCLC): > 100 µM
TGI (MOLT-4 leukemia): > 100 µM
TGI (BT-549 breast): > 100 µM
TGI (NCI-H460 lung): > 100 µM
TGI (MCF7 breast): > 100 µM
TGI (SNB-19 CNS): > 100 µM
TGI (SK-MEL-5 melanoma): > 100 µM
TGI (HS 578T breast): > 100 µM
TGI (UACC-62 melanoma): > 100 µM

COc1cc2cc(C(=O)N3CC(COS(C)(=O)=O)c4ccc(NC(=O)OCc5ccccc5)cc43)[nH]c2c(OC)c1OC (stereo unspecified)
TGI (HOP-92 NSCLC): > 100 µM
TGI (MOLT-4 leukemia): > 100 µM
TGI (BT-549 breast): > 100 µM
TGI (NCI-H460 lung): > 100 µM
TGI (MCF7 breast): > 100 µM
TGI (SNB-19 CNS): > 100 µM
TGI (SK-MEL-5 melanoma): > 100 µM
TGI (HL-60(TB) leukemia): > 100 µM
TGI (HS 578T breast): > 100 µM
TGI (UACC-62 melanoma): > 100 µM

C[C@@H]1[C@@H](C)C(c2ccccc2)O[Si]1(C(C)(C)C)C(C)(C)C (stereo partly specified)
TGI (RPMI-8226 leukemia): 50.3 µM
TGI (HOP-92 NSCLC): 38.8 µM
TGI (MOLT-4 leukemia): 33.9 µM
TGI (BT-549 breast): 57.1 µM
TGI (NCI-H460 lung): 32.2 µM
TGI (MCF7 breast): 31.9 µM
TGI (SNB-19 CNS): 18.3 µM
TGI (SK-MEL-5 melanoma): 31.5 µM
TGI (HS 578T breast): 42.6 µM
TGI (UACC-62 melanoma): 46.3 µM

N#CC(CCN1CCC(Nc2ccccc2)(c2nnnn2C2CCCCC2)CC1)(c1ccccc1)c1ccccc1
TGI (RPMI-8226 leukemia): > 100 µM
TGI (MOLT-4 leukemia): > 100 µM
TGI (BT-549 breast): > 100 µM
TGI (NCI-H460 lung): > 100 µM
TGI (MCF7 breast): > 100 µM
TGI (SNB-19 CNS): > 100 µM
TGI (SK-MEL-5 melanoma): > 100 µM
TGI (HL-60(TB) leukemia): > 100 µM
TGI (HS 578T breast): > 100 µM
TGI (UACC-62 melanoma): > 100 µM

c1nc(NCCc2cnc[nH]2)c2[nH]cnc2n1
TGI (RPMI-8226 leukemia): > 100 µM
TGI (HOP-92 NSCLC): > 100 µM
TGI (MOLT-4 leukemia): > 100 µM
TGI (BT-549 breast): > 100 µM
TGI (NCI-H460 lung): > 100 µM
TGI (SNB-19 CNS): > 100 µM
TGI (SK-MEL-5 melanoma): > 100 µM
TGI (HL-60(TB) leukemia): > 100 µM
TGI (HS 578T breast): > 100 µM
TGI (UACC-62 melanoma): > 100 µM

O=C(O)CCC(=O)OCN1C(=O)C2C3C=CC(C2C1=O)C1C2C(=O)N(COC(=O)CCC(=O)O)C(=O)C2C31 (stereo unspecified)
TGI (RPMI-8226 leukemia): 52.5 µM
TGI (HOP-92 NSCLC): > 100 µM
TGI (MOLT-4 leukemia): > 100 µM
TGI (NCI-H460 lung): > 54.5 µM
TGI (SNB-19 CNS): > 100 µM
TGI (SK-MEL-5 melanoma): > 100 µM
TGI (HL-60(TB) leukemia): 46.7 µM
TGI (UACC-62 melanoma): > 100 µM

COc1cccc(N=N/C(=N/NC(=O)c2ccc(C)cc2)c2ccc(N(CCC#N)CCC#N)cc2OC)c1
TGI (RPMI-8226 leukemia): > 100 µM
TGI (HOP-92 NSCLC): > 100 µM
TGI (MOLT-4 leukemia): > 100 µM
TGI (BT-549 breast): > 100 µM
TGI (NCI-H460 lung): > 100 µM
TGI (MCF7 breast): > 100 µM
TGI (SNB-19 CNS): > 100 µM
TGI (SK-MEL-5 melanoma): > 100 µM
TGI (HS 578T breast): > 100 µM
TGI (UACC-62 melanoma): > 100 µM

O=P1(N2CCOCC2)OCCO1
TGI (RPMI-8226 leukemia): > 100 µM
TGI (HOP-92 NSCLC): > 100 µM
TGI (MOLT-4 leukemia): > 100 µM
TGI (NCI-H460 lung): > 100 µM
TGI (MCF7 breast): > 100 µM
TGI (SNB-19 CNS): > 100 µM
TGI (SK-MEL-5 melanoma): > 100 µM
TGI (HL-60(TB) leukemia): > 100 µM
TGI (HS 578T breast): > 100 µM
TGI (UACC-62 melanoma): > 100 µM

CC1=NN(c2cccc(Cl)c2)C2(C1=Cc1ccc(O)cc1)C(Cl)C(=O)N2c1nc2ccccc2s1 (stereo unspecified)
TGI (RPMI-8226 leukemia): 55.8 µM
TGI (HOP-92 NSCLC): 37.5 µM
TGI (MOLT-4 leukemia): 44.2 µM
TGI (NCI-H460 lung): 89.3 µM
TGI (MCF7 breast): 98.4 µM
TGI (SK-MEL-5 melanoma): 39.8 µM
TGI (HL-60(TB) leukemia): > 100 µM
TGI (HS 578T breast): > 100 µM

O=c1c2cc(C(F)(F)F)ccc2sc2c(NCCCNCCO)nc3ccccc3c12
GI50 (HOP-92 NSCLC): 1080 nM
TGI (HOP-92 NSCLC): 2.4 µM
GI50 (BT-549 breast): 5.28 µM
TGI (BT-549 breast): 24.9 µM
GI50 (NCI-H460 lung): 1220 nM
TGI (NCI-H460 lung): 2.57 µM
GI50 (SNB-19 CNS): 1650 nM
TGI (SNB-19 CNS): 3.1 µM
GI50 (SK-MEL-5 melanoma): 1620 nM
TGI (SK-MEL-5 melanoma): 3.01 µM
GI50 (UACC-62 melanoma): 1780 nM
TGI (UACC-62 melanoma): 3.25 µM

COc1cc(/C=C2\CC/C(=C\c3cc(OC)c(O)c(OC)c3)C2=O)cc(OC)c1O
TGI (RPMI-8226 leukemia): 4.01 µM
TGI (MOLT-4 leukemia): 8 µM
TGI (BT-549 breast): 7.44 µM
TGI (NCI-H460 lung): > 100 µM
TGI (MCF7 breast): > 26.7 µM
TGI (SNB-19 CNS): > 100 µM
TGI (SK-MEL-5 melanoma): 5.57 µM
TGI (HL-60(TB) leukemia): 8.62 µM
TGI (HS 578T breast): 15.8 µM
TGI (UACC-62 melanoma): 3.8 µM

Cn1cnc(N)c(N=O)c1=O
TGI (RPMI-8226 leukemia): > 10 µM
TGI (MOLT-4 leukemia): > 10 µM
TGI (BT-549 breast): > 10 µM
TGI (NCI-H460 lung): > 10 µM
TGI (MCF7 breast): > 10 µM
TGI (SNB-19 CNS): > 10 µM
TGI (SK-MEL-5 melanoma): > 10 µM
TGI (HL-60(TB) leukemia): > 10 µM
TGI (HS 578T breast): > 10 µM
TGI (UACC-62 melanoma): > 10 µM

O=C(CCN1CCOCC1)/C(=C/c1ccccc1)c1ccccc1
TGI (RPMI-8226 leukemia): 8.05 µM
TGI (HOP-92 NSCLC): 13 µM
TGI (MOLT-4 leukemia): 5.81 µM
TGI (NCI-H460 lung): 23.1 µM
TGI (MCF7 breast): 18.8 µM
TGI (SNB-19 CNS): 23.4 µM
TGI (SK-MEL-5 melanoma): 21.5 µM
TGI (HL-60(TB) leukemia): 4.19 µM
TGI (UACC-62 melanoma): 7.52 µM

O=c1[nH]c(=O)n(C2CC(O)C(CO)O2)cc1Oc1ccccc1 (stereo unspecified)
TGI (RPMI-8226 leukemia): > 100 µM
TGI (MOLT-4 leukemia): > 100 µM
TGI (BT-549 breast): > 100 µM
TGI (NCI-H460 lung): > 100 µM
TGI (MCF7 breast): > 100 µM
TGI (SNB-19 CNS): > 100 µM
TGI (SK-MEL-5 melanoma): > 100 µM
TGI (HL-60(TB) leukemia): > 100 µM
TGI (HS 578T breast): > 100 µM
TGI (UACC-62 melanoma): > 100 µM

CCOC(=O)c1ccc(Nc2nc3ccccc3nc2-c2cccs2)cc1
TGI (RPMI-8226 leukemia): > 100 µM
TGI (MOLT-4 leukemia): > 100 µM
TGI (NCI-H460 lung): > 100 µM
TGI (MCF7 breast): > 100 µM
TGI (SNB-19 CNS): > 100 µM
TGI (SK-MEL-5 melanoma): > 100 µM
TGI (HL-60(TB) leukemia): > 100 µM
TGI (HS 578T breast): > 100 µM
TGI (UACC-62 melanoma): 33.6 µM

CC(C)(C)OC(=O)N/C(C=O)=C\C1CCCCC1
TGI (MOLT-4 leukemia): 52 µM
TGI (BT-549 breast): 70.6 µM
TGI (NCI-H460 lung): 40.6 µM
TGI (MCF7 breast): 72.8 µM
TGI (SNB-19 CNS): 76.1 µM
TGI (SK-MEL-5 melanoma): 31.3 µM
TGI (HL-60(TB) leukemia): 65.4 µM
TGI (HS 578T breast): 84.7 µM
TGI (UACC-62 melanoma): 30.7 µM

CCN1C/C(=C\c2ccc(Cl)cc2)c2nc(N)c(C#N)c(-c3ccc(Cl)cc3)c2C1
TGI (RPMI-8226 leukemia): > 100 µM
TGI (MOLT-4 leukemia): > 100 µM
TGI (BT-549 breast): > 100 µM
TGI (NCI-H460 lung): > 100 µM
TGI (MCF7 breast): > 100 µM
TGI (SNB-19 CNS): > 100 µM
TGI (SK-MEL-5 melanoma): > 100 µM
TGI (HL-60(TB) leukemia): > 100 µM
TGI (HS 578T breast): > 100 µM
TGI (UACC-62 melanoma): > 100 µM

N#C/C(=C/C=C/c1ccco1)C(N)=O
TGI (NCI-H460 lung): > 10 µM
TGI (MCF7 breast): > 10 µM
TGI (SK-MEL-5 melanoma): > 10 µM
TGI (HS 578T breast): > 10 µM

Cc1cc(-n2nnc(C(=O)O)c2-c2ccccc2)c2ccc(Cl)cc2n1
TGI (HOP-92 NSCLC): > 100 µM
TGI (MOLT-4 leukemia): > 100 µM
TGI (BT-549 breast): > 100 µM
TGI (NCI-H460 lung): > 100 µM
TGI (MCF7 breast): > 100 µM
TGI (SNB-19 CNS): > 100 µM
TGI (SK-MEL-5 melanoma): > 100 µM
TGI (HL-60(TB) leukemia): > 100 µM
TGI (HS 578T breast): > 100 µM
TGI (UACC-62 melanoma): > 100 µM
